Measured values taken from patent publication US20260103529A1, “Amino Acid Sequences Directed Against the Melanocortin 4 Receptor and Polypeptides Comprising the Same for the Treatment of MC4R-Related Diseases and Disorders” (Confo Therapeutics N.V., priority 2022, published 2026).

Key:
Type in all cases: cell-based
[1] = test system: highly pigmented normal human epidermal melanocytes (NHEM-HP); experiment: In vitro pigmentation assay, melanin synthesis, 2D NHEM highly pigmented; settings: 10 days; for melanin synthesis compared to the non-stimulated control, reference compounds: 1 mM L-tyrosine, 100 μM IBMX or 10 μM NDP-MSH
Protocol: (§1) Highly and moderately pigmented melanocytes were seeded in 24-well plates and cultured in culture medium for 24 hours. The medium was then replaced by culture medium containing or not (control) the test compounds or the reference compounds (L-tyrosine at 1 mM, IBMX at 100 and 200 μM and NDP-MSH at 10 μM). The cells were then incubated for 10 days with treatment renewal at day 3 and day 7. All experimental conditions were performed in n=3. At the end of the incubation time, the culture supernatants were removed, and melanin was extracted by cell lysis using a 0.5 N NaOH solution. The optical density (OD) of each experimental point was measured at 405 nm and melanin quantity was determined according to melanin standard curve (standard curve ranging from 0.39 to 100 μg/ml). The results were expressed in μg/ml of melanin. […] NHEM-HP response to L-tyrosine and NDP-MSH was stronger than in NHEM-MP while IBMX induced a stronger response in the NHEM-MP.

[2] = test system: moderately pigmented normal human epidermal melanocytes (NHEM-MP); experiment: In vitro pigmentation assay, melanin synthesis, 2D NHEM moderately pigmented; settings: 10 days; for melanin synthesis compared to the non-stimulated control, reference compounds: 1 mM L-tyrosine, 100 μM IBMX or 10 μM NDP-MSH
Protocol: as §1

[3] = test system: melanized reconstituted human epidermis (RHE/MEL/001); experiment: In vitro pigmentation assay, 3D reconstituted human epidermis, dermoscopy
Protocol: The study was carried out on melanized human epidermis (RHE/MEL/001; batch CB0521-3) in vitro reconstituted with NHEKs (Normal human epidermal keratinocytes, Lonza 00192906) isolated from foreskin of 3 neonatal Caucasian donors and NHEM-DP (Normal Human Epidermal Melanocytes-Darkly pigmented) isolated form one donor (phototype IV-V). The tissues were cultured at the air-liquid interface in Epilife medium (Fisher Scientific, MEP1500CA) containing specific supplements (with among others Human Keratinocytes Growth Factors, Fisher Scientific S0015 or SO01K) and antibiotics (Gentamycin, Fisher Scientific, 15710049). They were maintained in a humid atmosphere at 37° C. with 5% CO2.
RHE/MEL/001 were reconstituted and cultivated at the air-liquid interface during 14 days in Epilife medium supplemented with specific growth supplements (as described in paragraph 1) in a humid atmosphere at 37° C. with CO2 5%.
IBMX (Sigma; 15879) at 100 µM was used as tanning reference compound to validate the experiment. A DMSO control (corresponding to the solvent used to solubilize IBMX) at 0.02% (corresponding to the final concentration in DMSO found in the culture medium for the condition treated with IBMX) was planned as well. Four replicates were planned per condition (n=4).
At the end of the 10 days treatments (at day 14), macroscopic high-resolution pictures of tissues (n=4) were taken. This was performed using the C-Cube device (Dermoscope type tool; Pixience, France) coupled to C-Cube clinical 3 software, which uses a proprietary method of colour calibration, and provides razor-sharp images of high quality and precision. The following endpoints were calculated, each one taking into account 3 values from the mode “L* a* b*” with L* reflecting the luminance/brightness (value from 0 to 100 with high values for clear skins), a* to gives an idea about the redness of the skin (value from −60 to 60 on the red/green axis) and b* to gives an idea about the yellowness of the skin (value from −60 to 60 on the blue/yellow axis): • ITA (Individual Typology Angle) characterizing the phototype, compared to a standard scale, with ITA>55° for very clear skins and ITA<−30° for black skins. • PI (Pigmentation Index) whose value is directly proportional to the skin pigmentation, with PI from 140 for clear skins to 200 for dark skins. • Colorimetric difference (score or ΔE) allows to quantify colour variation between a test condition and a reference. […]
The two test items, hydro-soluble, were evaluated in parallel of one reference compound known to be a pigmentation inducer, namely IBMX. Their capacity to stimulate the production of melanin was evaluated by visual quantification of melanin on macroscopic high resolution pictures obtained by dermoscopy. […]

human wild type MC5R = biological target: T1, human wild type MC5R (Homo sapiens, UniProt P33032); experiment: cAMP GloSensor assay, MC5R; settings: HEK293 cells transiently transfected with human MC5R; read-out: average signaling potency (EC50), cAMP GloSensor, MC5R
T1 construct: expressed in transfected cells; host or cells: HEK293 / HEK 293T, pcDNA3.1(+)
T1 sequence (P33032 whole entry): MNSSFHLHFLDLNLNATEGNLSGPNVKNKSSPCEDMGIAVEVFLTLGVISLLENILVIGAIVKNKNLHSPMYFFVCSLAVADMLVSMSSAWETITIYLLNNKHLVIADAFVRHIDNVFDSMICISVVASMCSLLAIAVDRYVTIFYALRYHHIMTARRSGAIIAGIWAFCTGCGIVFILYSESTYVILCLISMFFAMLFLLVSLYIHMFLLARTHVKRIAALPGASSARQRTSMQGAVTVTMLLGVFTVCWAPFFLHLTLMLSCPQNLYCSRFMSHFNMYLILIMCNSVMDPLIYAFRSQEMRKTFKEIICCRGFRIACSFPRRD

[4] = 10 μM in culture medium, 10 days, dermoscopy

N[C@@H](Cc1ccc(O)cc1)C(=O)O [L-tyrosine]
melanin synthesis compared to the non-stimulated control, reference compounds [1]: induced a stimulation of melanin synthesis
melanin synthesis compared to the non-stimulated control, reference compounds [2]: induced a stimulation of melanin synthesis

Setmelanotide acetate [reference compound]
melanin synthesis ([1]; 10 μM): 130 % of the control
modulation of melanin synthesis [2]: did not modulate
Individual typology angle (ITA) [3, 4]: significantly modulated
pigmentation index (PI) [3, 4]: significantly modulated
visual colorimetric difference (score, ΔE) [3, 4]: significantly modulated
effect on epidermis pigmentation (conclusion of dermoscopy analysis) ([3]; 10 μM, human epidermis in culture): has a tanning effect

CC(=O)N[C@@H](CCCNC(=N)N)C(=O)N[C@H]1CSSC[C@@H](C(N)=O)NC(=O)[C@H](Cc2c[nH]c3ccccc23)NC(=O)[C@H](CCCNC(=N)N)NC(=O)[C@@H](Cc2ccccc2)NC(=O)[C@H](Cc2c[nH]cn2)NC(=O)[C@@H](C)NC1=O [setmelanotide, reference compound]
EC50 (human wild type MC5R): 0.451 ± 0.143 µM

NDP-MSH
melanin synthesis compared to the non-stimulated control, reference compounds [1]: induced a stimulation of melanin synthesis
melanin synthesis compared to the non-stimulated control, reference compounds [2]: induced a stimulation of melanin synthesis

CC(C)Cn1c(=O)n(C)c(=O)c2[nH]cnc21 [IBMX]
melanin synthesis compared to the non-stimulated control, reference compounds [1]: induced a stimulation of melanin synthesis
melanin synthesis compared to the non-stimulated control, reference compounds [2]: induced a stimulation of melanin synthesis
